Measurements reported in US6120762A, “C-terminal peptides of interferon γ” (priority 1998, dated 2000).
Several values for one entry are separate records, joined by “and”; a condition that tells them apart may be missing. Identical values can stand only once.

Test system: VSV
Type: cell-based, Vesicular stomatitis virus

## Human IFNγ
  Effect on virus yield: had no effect

B1: muIFNγ (protein, UniProt P01580 23-155, looked up)
Interferon gamma: HGTVIESLESLNNYFNSSGIDVEEKSLFLDIWRNWQKDGDMKILQSQIISFYLRLFEVLKDNQAISNNISVIESHLITTFFSNSKAKKDAFMSIAKFEVNNPQVQRQAFNELIRVVHQLLPESSLRKRKRSRC
  Virus yield: 1.2 × 10^8 and 1.6 × 10^10
